According to US8192962B2, “Processes for detecting toxic substances” (Daikin Industries, Ltd., priority 2001, dated 2012):

System: Mitochondria-located protein genes
Assay: DNA chip mRNA expression in yeast, mitochondria-located protein genes (Table 2)
Type: cell-based, Saccharomyces cerevisiae S288C
Settings: cells incubated two hours with the chemical substance
Outline: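 Whole-genome yeast DNA chip hybridization (65° C., >12 h) of Cy-labeled cDNA from S288C cells exposed 2 h at 25° C. to a sub-lethal toxicant dose in YPD; value is intensity relative to chemical-free control.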

CCCCC[C@H](O)CC(=O)CCc1ccc(O)c(OC)c1 [(13), gingerol]
The level of expressed mRNA in the presence of chemical substance/The level of expressed mRNA in the absence of chemical substance (yeast gene YAL039C): 1.6 | The level of expressed mRNA in the presence of chemical substance/The level of expressed mRNA in the absence of chemical substance (yeast gene YAL044C): 1.1 | The level of expressed mRNA in the presence of chemical substance/The level of expressed mRNA in the absence of chemical substance (yeast gene YBR291C): 1.0 | The level of expressed mRNA in the presence of chemical substance/The level of expressed mRNA in the absence of chemical substance (yeast gene YCL009C): 1.6 | The level of expressed mRNA in the presence of chemical substance/The level of expressed mRNA in the absence of chemical substance (yeast gene YDL067C): 0.6 | The level of expressed mRNA in the presence of chemical substance/The level of expressed mRNA in the absence of chemical substance (yeast gene YDR268W): 1.0 | The level of expressed mRNA in the presence of chemical substance/The level of expressed mRNA in the absence of chemical substance (yeast gene YDR377W): 0.7 | The level of expressed mRNA in the presence of chemical substance/The level of expressed mRNA in the absence of chemical substance (yeast gene YDR529C): 0.7 | The level of expressed mRNA in the presence of chemical substance/The level of expressed mRNA in the absence of chemical substance (yeast gene YGL068W): 1.0 | The level of expressed mRNA in the presence of chemical substance/The level of expressed mRNA in the absence of chemical substance (yeast gene YGL187C): 0.7 | The level of expressed mRNA in the presence of chemical substance/The level of expressed mRNA in the absence of chemical substance (yeast gene YGL191W): 1.1 | The level of expressed mRNA in the presence of chemical substance/The level of expressed mRNA in the absence of chemical substance (yeast gene YGR029W): 1.0 | The level of expressed mRNA in the presence of chemical substance/The level of expressed mRNA in the absence of chemical substance (yeast gene YGR112W): 1.1 | The level of expressed mRNA in the presence of chemical substance/The level of expressed mRNA in the absence of chemical substance (yeast gene YGR220C): 1.1 | The level of expressed mRNA in the presence of chemical substance/The level of expressed mRNA in the absence of chemical substance (yeast gene YHR037W): 1.1 | The level of expressed mRNA in the presence of chemical substance/The level of expressed mRNA in the absence of chemical substance (yeast gene YIL070C): 0.7 | The level of expressed mRNA in the presence of chemical substance/The level of expressed mRNA in the absence of chemical substance (yeast gene YIL094C): 0.7 | The level of expressed mRNA in the presence of chemical substance/The level of expressed mRNA in the absence of chemical substance (yeast gene YJL096W): 0.7 | The level of expressed mRNA in the presence of chemical substance/The level of expressed mRNA in the absence of chemical substance (yeast gene YKL150W): 1.8 | The level of expressed mRNA in the presence of chemical substance/The level of expressed mRNA in the absence of chemical substance (yeast gene YKL194C): 1.1 | The level of expressed mRNA in the presence of chemical substance/The level of expressed mRNA in the absence of chemical substance (yeast gene YLL001W): 1.7 | The level of expressed mRNA in the presence of chemical substance/The level of expressed mRNA in the absence of chemical substance (yeast gene YMR023C): 1.1 | The level of expressed mRNA in the presence of chemical substance/The level of expressed mRNA in the absence of chemical substance (yeast gene YMR203W): 1.1 | The level of expressed mRNA in the presence of chemical substance/The level of expressed mRNA in the absence of chemical substance (yeast gene YMR267W): 0.7 | The level of expressed mRNA in the presence of chemical substance/The level of expressed mRNA in the absence of chemical substance (yeast gene YNL284C): 1.0 | The level of expressed mRNA in the presence of chemical substance/The level of expressed mRNA in the absence of chemical substance (yeast gene YOR187W): 0.7 | The level of expressed mRNA in the presence of chemical substance/The level of expressed mRNA in the absence of chemical substance (yeast gene YOR316C): 1.6 | The level of expressed mRNA in the presence of chemical substance/The level of expressed mRNA in the absence of chemical substance (yeast gene YPL215W): 0.7 | The level of expressed mRNA in the presence of chemical substance/The level of expressed mRNA in the absence of chemical substance (yeast gene YPR134W): 1.1
